Key:
Format in all cases: cell-based
ITK (IL2 mRNA) = assay: Pre-clinical human whole blood αCD3/28/IL-2 mRNA (2 hr); conditions: Homo sapiens, 2 h; read-out: Human Whole Blood EC50, αCD3/28/IL-2 mRNA (2 hr)
[1] = system: IL15 stimulated IFNγ protein; assay: Pre-clinical human whole blood IL-15/IFNγ (5 hr); conditions: Homo sapiens, 5 h, read-out: Human Whole Blood EC50, IL-15/IFNγ (5 hr)
JAK2 = target: T1, JAK2 (Homo sapiens, UniProt O60674); assay: Cell IC50 JAK2
T1 construct: endogenous in cells

JAK3 (pSTAT5, lymph) = assay: Pre-clinical human whole blood IL-2/pSTAT5 (20 min), lymphocytes; conditions: Homo sapiens, Lymphocyte, 20 min; read-out: Human Whole Blood EC50, IL-2/pSTAT5 (20 min)
ITK & JAK (IFNγ protein) = assay: Pre-clinical human whole blood αCD3 + IL-15/IFNγ (18 hr); conditions: Homo sapiens, 18 h; read-out: Human Whole Blood EC50, αCD3 + IL-15/IFNγ (18 hr)
ITK = target: T2, ITK (Homo sapiens, UniProt Q08881); assay: Cell IC50 ITK (Jurkat/pPLCγ1)
T2 construct: (Jurkat/pPLCγ1); endogenous in cells; host or cells: Jurkat
T2 sequence (Q08881 1-620): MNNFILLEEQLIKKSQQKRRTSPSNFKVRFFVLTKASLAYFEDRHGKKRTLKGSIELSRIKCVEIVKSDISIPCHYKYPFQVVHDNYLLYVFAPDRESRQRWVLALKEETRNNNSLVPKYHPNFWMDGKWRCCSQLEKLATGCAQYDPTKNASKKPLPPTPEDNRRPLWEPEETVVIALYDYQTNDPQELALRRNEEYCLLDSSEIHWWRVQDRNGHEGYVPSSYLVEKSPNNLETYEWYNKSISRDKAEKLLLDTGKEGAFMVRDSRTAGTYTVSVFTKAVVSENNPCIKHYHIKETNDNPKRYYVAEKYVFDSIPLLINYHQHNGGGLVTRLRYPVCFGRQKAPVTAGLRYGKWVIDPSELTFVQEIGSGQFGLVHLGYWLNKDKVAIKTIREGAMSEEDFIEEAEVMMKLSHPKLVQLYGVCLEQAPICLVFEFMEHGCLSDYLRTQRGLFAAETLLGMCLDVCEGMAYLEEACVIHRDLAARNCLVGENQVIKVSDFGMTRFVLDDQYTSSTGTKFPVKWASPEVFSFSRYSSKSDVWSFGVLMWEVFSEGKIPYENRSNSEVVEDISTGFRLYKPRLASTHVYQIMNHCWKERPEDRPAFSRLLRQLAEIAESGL

T1 sequence (O60674 whole entry): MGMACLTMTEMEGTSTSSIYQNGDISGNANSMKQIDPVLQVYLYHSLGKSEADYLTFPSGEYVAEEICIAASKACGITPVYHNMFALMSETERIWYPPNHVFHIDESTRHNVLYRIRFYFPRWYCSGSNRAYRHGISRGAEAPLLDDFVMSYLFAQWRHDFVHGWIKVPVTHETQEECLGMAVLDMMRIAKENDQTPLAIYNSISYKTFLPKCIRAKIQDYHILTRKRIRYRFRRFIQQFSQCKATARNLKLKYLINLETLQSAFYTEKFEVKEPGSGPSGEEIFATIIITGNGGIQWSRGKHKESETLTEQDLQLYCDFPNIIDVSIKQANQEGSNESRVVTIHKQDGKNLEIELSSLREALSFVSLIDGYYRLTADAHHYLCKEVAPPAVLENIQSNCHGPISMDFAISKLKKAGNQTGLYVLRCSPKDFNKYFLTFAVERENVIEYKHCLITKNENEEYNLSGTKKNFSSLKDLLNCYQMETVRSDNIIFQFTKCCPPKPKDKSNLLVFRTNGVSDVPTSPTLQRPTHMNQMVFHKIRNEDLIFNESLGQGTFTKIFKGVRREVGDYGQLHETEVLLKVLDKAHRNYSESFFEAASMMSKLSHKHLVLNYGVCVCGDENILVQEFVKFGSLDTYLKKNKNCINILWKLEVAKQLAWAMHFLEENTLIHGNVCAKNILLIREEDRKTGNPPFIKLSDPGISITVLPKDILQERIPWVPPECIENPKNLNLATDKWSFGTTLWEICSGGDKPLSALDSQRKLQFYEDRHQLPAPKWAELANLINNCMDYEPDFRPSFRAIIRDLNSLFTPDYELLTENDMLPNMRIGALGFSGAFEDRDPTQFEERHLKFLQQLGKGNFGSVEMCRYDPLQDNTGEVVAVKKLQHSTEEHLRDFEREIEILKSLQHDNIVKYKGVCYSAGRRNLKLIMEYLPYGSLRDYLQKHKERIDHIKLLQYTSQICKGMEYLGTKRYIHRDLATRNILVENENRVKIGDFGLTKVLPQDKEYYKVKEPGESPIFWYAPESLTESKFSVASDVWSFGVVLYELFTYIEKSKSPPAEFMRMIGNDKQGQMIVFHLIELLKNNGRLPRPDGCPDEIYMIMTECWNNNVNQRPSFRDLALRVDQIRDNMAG

| EC50 (ITK (IL2 mRNA)) [nM] | EC50 [1] [nM] | Cell IC50, JAK2 (JAK2) | EC50 (JAK3 (pSTAT5, lymph)) [nM] | EC50 (ITK & JAK (IFNγ protein)) [nM] | Cell IC50, ITK (ITK) | Structure (SMILES) |
| --- | --- | --- | --- | --- | --- | --- |
| 740 | 52 | Inactive | […] | 33 |  | C=CC(=O)N1C[C@H](Nc2ncnc3[nH]ccc23)CC[C@@H]1C [Ritlecitinib, reference compound] |
|  |  |  |  |  | Inactive | C[C@@H]1CCN(C(=O)CC#N)C[C@@H]1N(C)c1ncnc2[nH]ccc12 [Tofacitinib, reference compound] |

Source: patent US20260191863A1, “PYRROLOPYRIMIDINE COMPOSITIONS FOR TREATMENT OF ITK MEDIATED CONDITIONS” (ACLARIS THERAPEUTICS, INC., priority 2022, published 2026)
